Data on 1 sequence can be found in patent US11951171B2, “Polypeptide EXP and its drug delivery system as well as extracellular vesicle extraction” (TIANJIN MEDICAL UNIVERSITY, priority 2019, dated 2024).

The test system of one test is exosomes. In words: Competitive binding of CP05 and EXP to exosomes (flow cytometry). The following applies: peptide alone with exosomes (FIG. 3A, first line). On the procedure:
AF750 (APC-Cy7)-labeled CP05 and FAM-labeled CP05 or EXP were co-incubated with exosomes at ratios of 1:1 or 1:5 (mass ratio), and the binding efficiency was detected with flow cytometry. It's shown by the results that when EXP and CP05 were incubated with exosomes at the same time, EXP could compete with CP05 to combine with exosomes, thus reducing the binding efficiency of CP05 and exosomes. (A) Flow cytometry to detect the binding efficiency of EXP or CP05 to exosomes. EXO was used as negative control; EXOCP05 is the binding efficiency of CP05 (FAM, af750) separately labeled by different fluorescence labeling with exosomes. EXOEXP is the binding efficiency of FAM labeled EXP andexosomes. 1:1, 1:5, 1:10 means different mass ratios of AF750 and FAM-EXP/FAM-CP05 are respectively as 1:1, 1:5, 1:10. It's shown by the results of flow cytometryto that the binding efficiency of CP05 alone with EXO was about 70%, while that of EXP and exosomes was 91.5% (flow cytometry to chart: the first line). […] However, it's found by comparing different fluorescence CP05 molecules (flow cytometry to chart: the third line) that, the binding efficiency of EXOCP05 (AF750) remained unchanged with increasing the mass ratio of FAM-CP05. […] Different fluorescence-labeled CP05 (APC-Cy7, FAM) were co-incubated with exosomes, their binding efficiency is detected with flow cytometry. […]
A general note: In flow cytometry, cells or beads pass a laser one at a time.

The target of another test is T1, CD81 (Mus musculus, UniProt P35762).
T1 construct: endogenous in cells; host or cells: C2C12 cells (lysate)
T1 sequence (P35762 1-236): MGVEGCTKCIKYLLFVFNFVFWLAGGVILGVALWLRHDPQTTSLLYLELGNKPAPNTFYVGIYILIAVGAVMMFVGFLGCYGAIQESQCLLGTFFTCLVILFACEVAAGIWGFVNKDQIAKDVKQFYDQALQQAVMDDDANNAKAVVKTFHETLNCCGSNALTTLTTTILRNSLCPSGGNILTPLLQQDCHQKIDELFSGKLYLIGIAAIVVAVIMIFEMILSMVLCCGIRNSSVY
Nature of the test: EXP target detection by co-immunoprecipitation, silver staining and Western blot. It counts as binding. The following applies: Flag-tagged peptide on anti-flag beads, C2C12 lysate; band about 45 kD and 25 kD. On the procedure:
(§1) (A) Silver staining and Western blot were used to detect the interest proteins band obtained by co-immunoprecipitation. Flag-tagged CP05 or EXP was incubated with anti-flag coated beads, and followed by co-incubation with cell lysates after removing the free peptides which were unconjugated with beads. The specific enriched proteins in the cell protein lysate were fished by using the polypeptide. Then the size distribution of the fishing strip was detected by silver staining, and the expression of different Tetraspanin family proteins in the fishing strip was detected by Western blot. […] (B)Immunoprecipitation was used to catch the target of EXP. The results are the same as above. […]

A further test has as its target T2, CD63 (Mus musculus, UniProt P41731).
T2 construct: endogenous in cells; host or cells: C2C12 cells (lysate)
T2 sequence (P41731 1-238): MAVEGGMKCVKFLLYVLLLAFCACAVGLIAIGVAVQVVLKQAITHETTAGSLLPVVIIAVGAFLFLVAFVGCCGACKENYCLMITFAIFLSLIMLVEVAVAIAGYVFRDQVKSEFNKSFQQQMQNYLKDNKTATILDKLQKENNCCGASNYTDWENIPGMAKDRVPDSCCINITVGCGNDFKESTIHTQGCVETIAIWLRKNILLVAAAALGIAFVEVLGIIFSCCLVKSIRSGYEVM
The test is described as above. The following applies: Flag-tagged peptide on anti-flag beads, C2C12 lysate; band about 45 kD and 25 kD. It counts as binding. As for the experimental part:
as §1

A further test deals with C2C12 cells. In words: Binding stability: intracellular co-localization of peptides with exosomes (confocal microscopy, FRET). The test is classed as cell-based, murine. As for the experimental part:
The intracellular co-localization of CP05 and EXP with exosomes was examined with confocal microscopy at different timepoints. FAM-labeled CP05 and EXP were incubated with DiI-labeled exosomes and then added into C2C12 cells.
The meanings of the signs in the figure are as follows: DAPI means staining result for nuclei by DAPI, Peptide(488,520) refers to the excitation and emission wavelength of FAM-labeled CP05 and EXP; EXO(Dil)(540,620) refers to the excitation and emission wavelength for DiI-labeled exosomes; Merge is the superposition of above three staining results; FRET means fluorescence resonance energy transfer. Optical energy resonance transfer is an energy transfer phenomenon between two fluorescent molecules that are very close to each other. When the emission spectrum of the donor fluorescent molecule overlaps with the absorption spectrum of the acceptor fluorescent molecule, and the distance between two molecules is within the range of 10 nm, a […] energy transfer occurs. In the figure, the FAM-Peptide is the donor fluorescent molecule and DiI-EXO is the acceptor fluorescent molecule. […] EXOCP05 is the staining result of exosomes combined with CP05 sequence which is recorded in the prior art Chinese Patent No. CN201510520565.7, and EXOEXP refers to the staining result of the combination of EXP of the present invention and exosomes. […]

For CRHKMWTVKSRL (EXP), the “binding efficiency of peptide alone with EXO” value in the test on exosomes is on record as 91.5%. Besides, in the test with CD81, the “protein band fished from cell lysate, confirmed by Western blot as CD81” value is reported as “distinct protein bands”. Besides, the “protein band fished from cell lysate, confirmed by Western blot as CD63” value in the test with CD63 is reported as “distinct protein bands”. Further, the “co-localization with EXO in cells at 48 hours” value in the test with C2C12 cells is listed as “still detectable”.
